Assay results as given in the supplement of paper PMC11451515.

Test system: NOMO1
Assay: cell viability relative to DMSO control; higher = less cytotoxic
Settings: 48 h
Procedure, shortened: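 Leukemia cells (NOMO1 or SEM, 500 cells/well; P12-Ichikawa, 1000 cells/well) were seeded in 5 μl in 1536-well plates after at least four passages of adaptation to each medium. They received library compounds in DMSO by pin dosing, 11 threefold points from 47 μM to 0.79 nM. Luminescence with CellTiter-Glo One was read after 48 h at 37°C. Viability is stated per plate relative to DMSO wells, with cell-free wells as background.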

[1] = HPLM + 10% dialyzed FBS, 0.000781 µM
[2] = HPLM + 10% dialyzed FBS, 0.00234 µM
[3] = HPLM + 10% dialyzed FBS, 0.00702 µM
[4] = HPLM + 10% dialyzed FBS, 0.0211 µM
[5] = HPLM + 10% dialyzed FBS, 0.0632 µM
[6] = HPLM + 10% dialyzed FBS, 0.19 µM
[7] = HPLM + 10% dialyzed FBS, 0.569 µM
[8] = HPLM + 10% dialyzed FBS, 1.71 µM
[9] = HPLM + 10% dialyzed FBS, 5.12 µM
[10] = HPLM + 10% dialyzed FBS, 15.4 µM
[11] = HPLM + 10% dialyzed FBS, 46.1 µM
[12] = RPMI 5 mM glucose + 10% FBS, 0.000781 µM
[13] = RPMI 5 mM glucose + 10% FBS, 0.00234 µM
[14] = RPMI 5 mM glucose + 10% FBS, 0.00702 µM
[15] = RPMI 5 mM glucose + 10% FBS, 0.0211 µM
[16] = RPMI 5 mM glucose + 10% FBS, 0.0632 µM
[17] = RPMI 5 mM glucose + 10% FBS, 0.19 µM
[18] = RPMI 5 mM glucose + 10% FBS, 0.569 µM
[19] = RPMI 5 mM glucose + 10% FBS, 1.71 µM
[20] = RPMI 5 mM glucose + 10% FBS, 5.12 µM
[21] = RPMI 5 mM glucose + 10% FBS, 15.4 µM
[22] = RPMI 5 mM glucose + 10% FBS, 46.1 µM
[23] = RPMI 5 mM glucose + 10% dialyzed FBS, 0.000781 µM
[24] = RPMI 5 mM glucose + 10% dialyzed FBS, 0.00234 µM
[25] = RPMI 5 mM glucose + 10% dialyzed FBS, 0.00702 µM
[26] = RPMI 5 mM glucose + 10% dialyzed FBS, 0.0211 µM
[27] = RPMI 5 mM glucose + 10% dialyzed FBS, 0.0632 µM
[28] = RPMI 5 mM glucose + 10% dialyzed FBS, 0.19 µM
[29] = RPMI 5 mM glucose + 10% dialyzed FBS, 0.569 µM
[30] = RPMI 5 mM glucose + 10% dialyzed FBS, 1.71 µM
[31] = RPMI 5 mM glucose + 10% dialyzed FBS, 5.12 µM
[32] = RPMI 5 mM glucose + 10% dialyzed FBS, 15.4 µM
[33] = RPMI 5 mM glucose + 10% dialyzed FBS, 46.1 µM

Row | SMILES | cell viability [1] | cell viability [2] | cell viability [3] | cell viability [4] | cell viability [5] | cell viability [6] | cell viability [7] | cell viability [8] | cell viability [9] | cell viability [10] | cell viability [11] | cell viability [12] | cell viability [13] | cell viability [14] | cell viability [15] | cell viability [16] | cell viability [17] | cell viability [18] | cell viability [19] | cell viability [20] | cell viability [21] | cell viability [22] | cell viability [23] | cell viability [24] | cell viability [25] | cell viability [26] | cell viability [27] | cell viability [28] | cell viability [29] | cell viability [30] | cell viability [31] | cell viability [32] | cell viability [33]
1 | NC1(Cc2ccc(Cl)cc2)CCN(c2ncnc3[nH]ccc23)CC1 | 97.7% | 93.7% | 89.9% | 106% | 92.9% | 105% | 116% | 81.9% | 82% | 45.6% | 29.4% | 106% | 102% | 88.3% | 101% | 97.4% | 90.5% | 85.5% | 90.6% | 74.5% | 32.6% | 16.3% | 102% | 92.8% | 94.7% | 90.2% | 102% | 84.9% | 87.8% | 80.9% | 67.3% | 33% | 17.7%
2 | COC1CCC(CC1)N(C(=O)C2CCC(C)CC2)C3=C(SC(=C3)\C4=C\CCCC4)C(O)=O (stereo unspecified) | 120% | 120% | 109% | 127% | 128% | 130% | 107% | 112% | 106% | 90.9% | 52.6% | 103% | 115% | 104% | 119% | 102% | 104% | 91.5% | 105% | 103% | 90.7% | 96% | 102% | 102% | 120% | 102% | 110% | 99.4% | 97% | 109% | 104% | 93.4% | 84.5%
